Data on 33 molecules can be found in ChEMBL document CHEMBL1141544, “Synthesis of N-pyrimidinyl-2-phenoxyacetamides as adenosine A2A receptor antagonists” (Bioorg Med Chem Lett, 2008).

For series [1], the target named is T1, Adenosine receptor A2a (Homo sapiens, UniProt P29274). Nature of the series: Displacement of [3H]ZM-241385 from human adenosine A2A receptor expressed in HEK293 cells. The series is classed as cell-based.
Series [2] concerns the target T2, Adenosine receptor A1 (Homo sapiens, UniProt P30542).
T2 sequence (P30542 whole entry): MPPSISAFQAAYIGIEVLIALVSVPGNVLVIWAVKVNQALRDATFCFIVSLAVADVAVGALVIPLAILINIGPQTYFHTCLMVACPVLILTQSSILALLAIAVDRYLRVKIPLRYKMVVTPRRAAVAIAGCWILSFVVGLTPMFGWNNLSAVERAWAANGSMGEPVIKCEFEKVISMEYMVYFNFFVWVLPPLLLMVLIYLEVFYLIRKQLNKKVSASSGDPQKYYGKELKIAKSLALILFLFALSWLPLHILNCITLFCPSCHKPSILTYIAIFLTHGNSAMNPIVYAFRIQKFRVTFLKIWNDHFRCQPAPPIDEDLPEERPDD
Put plainly: Displacement of [3H]DPCPX from human adenosine A1 receptor expressed in HEK293 cells. The series is classed as cell-based. (In general: Displacement assays read how much labelled ligand stays bound in the presence of the test substance.)

For series [3], the target named is Cytochrome P450 3A4 (Homo sapiens, UniProt P08684). Put plainly: Inhibition of CYP3A4. The series is classed as ADME.
Series [4] deals with Cytochrome P450 2D6 (Homo sapiens, UniProt P10635). Put plainly: Inhibition of CYP2D6. The format is ADME.
Series [5] is filed under the species Homo sapiens. Nature of the series: Selectivity of Ki for human adenosine A2A receptor over Ki for human adenosine A1 receptor.
Series [6] addresses T1, Adenosine receptor A2a. Put plainly: Binding affinity at adenosine A2A receptor.
A short description of series [7]: Solubility at pH 5. The series is classed as physicochemical. The note with it: buffer.
Series [8] concerns the target Adenosine receptor A2a (Rattus norvegicus, UniProt P30543). Nature of the series: Inhibition of rat adenosine A2A receptor.
Series [9] can be described thus: Oral bioavailability in rat. The format is ADME, organism-based. As to conditions: in vivo.
Series [10] can be described thus: Volume of distribution in rat. The format is ADME, organism-based. As to conditions: in vivo.
Series [11] is described as follows: Half life in rat. The format is ADME, organism-based. The note with it: in vivo.
Series [12] can be described thus: Plasma clearance in rat. The format is ADME, organism-based.
Series [13] is described as follows: Drug level in rat brain after 4 hrs. The format is ADME, tissue-based. The note with it: read-out: Drug uptake.
Series [14] has as its system Rattus norvegicus. Put plainly: Inhibition of haloperidol-induced catalepsy in orally dosed rat. The format is functional. The note with it: po, read-out: MED.
Series [15] deals with Voltage-gated inwardly rectifying potassium channel KCNH2 (Homo sapiens, UniProt Q12809). Nature of the series: Binding affinity at human ERG.
The target in series [16] is T2, Adenosine receptor A1. Nature of the series: Binding affinity at adenosine A1 receptor.

Each structure is given as a SMILES string. Converted amounts (≈) assume the structure as drawn.

Sequence of Cytochrome P450 3A4 (P08684 whole entry): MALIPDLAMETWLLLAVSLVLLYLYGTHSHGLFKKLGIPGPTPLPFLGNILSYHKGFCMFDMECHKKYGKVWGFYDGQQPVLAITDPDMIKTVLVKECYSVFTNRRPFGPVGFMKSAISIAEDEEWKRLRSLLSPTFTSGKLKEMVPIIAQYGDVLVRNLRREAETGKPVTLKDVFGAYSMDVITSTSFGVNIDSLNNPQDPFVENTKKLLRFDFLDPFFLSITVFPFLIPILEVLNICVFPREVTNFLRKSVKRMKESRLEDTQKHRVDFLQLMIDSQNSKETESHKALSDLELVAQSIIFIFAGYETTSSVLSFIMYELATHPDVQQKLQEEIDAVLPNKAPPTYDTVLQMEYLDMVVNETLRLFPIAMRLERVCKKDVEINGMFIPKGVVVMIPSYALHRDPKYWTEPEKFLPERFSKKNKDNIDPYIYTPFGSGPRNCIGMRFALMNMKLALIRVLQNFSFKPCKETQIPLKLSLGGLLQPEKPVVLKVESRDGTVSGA
T1 sequence (P29274 whole entry): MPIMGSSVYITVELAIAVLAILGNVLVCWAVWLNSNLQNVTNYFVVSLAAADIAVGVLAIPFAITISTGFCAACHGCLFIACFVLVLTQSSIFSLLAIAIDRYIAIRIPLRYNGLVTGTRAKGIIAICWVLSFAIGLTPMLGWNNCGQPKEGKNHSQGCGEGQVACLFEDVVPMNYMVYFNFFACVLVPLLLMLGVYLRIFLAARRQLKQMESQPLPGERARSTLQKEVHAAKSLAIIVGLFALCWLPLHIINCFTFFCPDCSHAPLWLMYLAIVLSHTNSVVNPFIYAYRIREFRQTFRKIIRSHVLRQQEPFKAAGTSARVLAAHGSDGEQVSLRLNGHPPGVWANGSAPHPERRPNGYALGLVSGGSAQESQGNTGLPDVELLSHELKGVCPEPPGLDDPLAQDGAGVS
Sequence of Cytochrome P450 2D6 (P10635 whole entry): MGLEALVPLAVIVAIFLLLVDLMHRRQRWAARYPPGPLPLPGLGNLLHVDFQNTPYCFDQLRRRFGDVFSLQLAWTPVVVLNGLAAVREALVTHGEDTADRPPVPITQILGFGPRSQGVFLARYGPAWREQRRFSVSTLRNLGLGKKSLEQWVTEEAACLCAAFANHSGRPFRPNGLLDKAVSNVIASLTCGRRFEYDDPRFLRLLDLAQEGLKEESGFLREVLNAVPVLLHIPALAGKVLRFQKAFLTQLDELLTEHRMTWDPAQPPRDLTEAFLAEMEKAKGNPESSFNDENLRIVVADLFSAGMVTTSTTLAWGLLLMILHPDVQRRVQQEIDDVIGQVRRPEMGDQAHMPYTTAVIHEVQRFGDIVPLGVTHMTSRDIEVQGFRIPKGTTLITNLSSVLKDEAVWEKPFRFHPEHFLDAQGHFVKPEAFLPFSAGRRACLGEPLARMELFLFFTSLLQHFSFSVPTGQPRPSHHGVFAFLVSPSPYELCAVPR
Sequence of Adenosine receptor A2a (Rattus norvegicus, UniProt P30543) (P30543 whole entry): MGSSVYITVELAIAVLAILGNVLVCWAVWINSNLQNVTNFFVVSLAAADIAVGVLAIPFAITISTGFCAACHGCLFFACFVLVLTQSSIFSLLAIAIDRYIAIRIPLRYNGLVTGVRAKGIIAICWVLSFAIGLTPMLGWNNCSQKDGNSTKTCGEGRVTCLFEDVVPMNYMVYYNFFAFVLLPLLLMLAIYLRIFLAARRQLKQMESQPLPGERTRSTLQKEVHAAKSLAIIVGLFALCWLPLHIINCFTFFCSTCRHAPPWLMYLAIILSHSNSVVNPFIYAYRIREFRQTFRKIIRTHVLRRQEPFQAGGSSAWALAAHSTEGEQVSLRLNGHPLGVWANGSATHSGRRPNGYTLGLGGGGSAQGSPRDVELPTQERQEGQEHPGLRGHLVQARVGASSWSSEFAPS
Sequence of Voltage-gated inwardly rectifying potassium channel KCNH2 (Q12809 whole entry): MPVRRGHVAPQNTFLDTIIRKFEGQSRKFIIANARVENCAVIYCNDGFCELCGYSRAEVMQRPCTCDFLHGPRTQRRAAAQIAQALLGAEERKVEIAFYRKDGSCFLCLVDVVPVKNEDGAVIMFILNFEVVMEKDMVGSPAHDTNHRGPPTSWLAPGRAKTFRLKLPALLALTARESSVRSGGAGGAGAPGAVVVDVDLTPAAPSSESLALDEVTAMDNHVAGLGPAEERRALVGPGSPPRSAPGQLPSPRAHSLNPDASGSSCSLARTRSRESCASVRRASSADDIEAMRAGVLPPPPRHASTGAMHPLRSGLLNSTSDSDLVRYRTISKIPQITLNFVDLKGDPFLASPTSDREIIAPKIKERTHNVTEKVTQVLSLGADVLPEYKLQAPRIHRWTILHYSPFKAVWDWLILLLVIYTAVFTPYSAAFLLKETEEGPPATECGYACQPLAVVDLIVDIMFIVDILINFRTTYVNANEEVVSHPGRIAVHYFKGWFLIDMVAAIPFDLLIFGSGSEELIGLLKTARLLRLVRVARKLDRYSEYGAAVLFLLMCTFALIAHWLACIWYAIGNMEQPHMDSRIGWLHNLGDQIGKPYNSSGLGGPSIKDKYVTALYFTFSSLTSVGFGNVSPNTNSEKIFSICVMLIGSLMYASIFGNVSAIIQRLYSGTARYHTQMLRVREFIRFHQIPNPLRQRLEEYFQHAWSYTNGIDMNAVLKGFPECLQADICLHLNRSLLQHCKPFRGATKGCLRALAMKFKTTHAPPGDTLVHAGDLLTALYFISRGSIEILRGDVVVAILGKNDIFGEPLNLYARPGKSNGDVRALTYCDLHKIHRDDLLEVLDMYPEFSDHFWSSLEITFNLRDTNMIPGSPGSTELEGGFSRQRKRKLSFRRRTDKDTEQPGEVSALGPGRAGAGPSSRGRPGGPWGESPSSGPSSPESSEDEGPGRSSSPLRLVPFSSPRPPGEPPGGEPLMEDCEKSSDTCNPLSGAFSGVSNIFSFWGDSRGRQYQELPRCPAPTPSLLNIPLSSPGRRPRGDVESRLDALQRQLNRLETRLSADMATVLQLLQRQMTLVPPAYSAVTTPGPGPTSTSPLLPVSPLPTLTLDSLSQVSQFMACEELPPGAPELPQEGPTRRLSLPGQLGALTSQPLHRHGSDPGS

One may read the Ki as the equilibrium dissociation constant of an inhibitor or competing ligand from its target. As to `Cc1ccc(-c2nc(NC(=O)COc3cccc(F)c3)cc(-c3nccs3)n2)o1`, the inhibition constant Ki in series [1] is 11 nM; in [2], 2200 nM.
The term IC50 denotes the concentration at which inhibition is half-maximal. `Cc1cc(OCC(=O)Nc2cc(-n3nc(C)cc3C)nc(-c3ccc(C)o3)n2)cc(C)n1`: the values for the Ki in series [1] and in series [2] were 0.7 nM and 740 nM, respectively. In addition, the IC50 worked out at 1100 nM in [3] and 50 nM in series [4].
Take `Cc1cc(C)n(-c2cc(NC(=O)COc3cccc(CCN4CCOCC4)c3)nc(-c3ccc(C)o3)n2)n1`: the Ki in series [1] was 2.3 nM; in series [2], 540 nM.
The corresponding values for `N#Cc1cccc(OCC(=O)Nc2cc(-c3nccs3)nc(-c3ccccn3)n2)c1` are 1.8 nM and 87 nM.
`CCNCc1cccc(OCC(=O)Nc2cc(-n3nc(C)cc3C)nc(-c3ccc(C)o3)n2)c1`: the inhibition constant Ki in [1] was 0.3 nM; in series [2], 68 nM; in series [6], 0.3 nM. The Ratio Ki in series [5] is 100.
Regarding `Cc1cc(C)nc(OCC(=O)Nc2cc(-n3nc(C)cc3C)nc(-c3ccc(C)o3)n2)n1`, the Ki in series [1] turned out to be 3.7 nM; in series [2], 95 nM.
For `Cc1cc(C)n(-c2cc(NC(=O)COc3cccc(CN)c3)nc(-c3ccc(C)o3)n2)n1`, the Ki in series [1] worked out at 0.7 nM; in [2], 73 nM; in series [6] it was 0.7 nM. The Ratio Ki in [5] stood at 100.
As for `Cc1ccc(-c2nc(NC(=O)COc3cccc(C#N)c3)cc(-c3nccs3)n2)o1`, the inhibitory constant (Ki) in series [1] was 6.8 nM; in series [2] it was 4300 nM.
As to `COc1ccc(OCC(=O)Nc2cc(-n3nc(C)cc3C)nc(-c3ccc(C)o3)n2)c(CN(C)C)c1`, the results for the inhibition constant (Ki) in [1] and in series [2] were 0.9 nM and 200 nM, respectively. The molecule also displayed a concentration for half-maximal inhibition (IC50) in series [3] of 1600 nM.
The term solubility denotes how much of the substance goes into solution per volume. For orientation: bioavailability means the share of a dose that reaches the circulation, judged against a reference dose that is usually intravenous. A word on the Vd: it is a proportionality between amount in the body and measured concentration, not a real space. The half-life is the time in which the quantity being followed falls by half. Read a high half-life as slow decline. Usually clearance stands for a measure of how efficiently the substance is removed, as volume per time. Turning to `Cc1cc(C)n(-c2cc(NC(=O)COc3cccc(CN(C)C)c3)nc(-c3ccc(C)o3)n2)n1`, the inhibitory constant (Ki) was found to be 0.4 nM in series [1], 60 nM in series [2] and 9.4 nM in [8]. This molecule also came in with a solubility in series [7] of 210 µg/mL (≈ 456 µM). Also, the 50% inhibitory concentration (IC50) in series [3] and in series [4] was greater than 6000 nM in each case. The molecule further had a bioavailability in series [9] of 19%. The Vd in series [10] was determined as 20 L/kg. This molecule also showed a half-life in series [11] of 48 min. In [12], this molecule returned a clearance of 330 mL/min/kg. For the same molecule, the concentration at 4 h in series [13] was 360 ng/g. In addition, the minimal effective dose in series [14] came to 10 mg/kg.
Turning to `Cc1cc(C)n(-c2cc(NC(=O)COc3ccc(CN(C)C)cc3)nc(-c3ccc(C)o3)n2)n1`, the Ki worked out at 0.3 nM in series [1] and 120 nM in series [2].
On the same counts, the results for `O=C(COc1cccc(F)c1)Nc1cc(-c2nccs2)nc(-c2ccccn2)n1` are 3.6 nM and 180 nM.
Consider `Cc1cc(C)n(-c2cc(NC(=O)COc3ccccc3CCN3CCOCC3)nc(-c3ccc(C)o3)n2)n1`, for which the Ki in series [1] stood at 1.2 nM; in series [2], 1200 nM; in series [15], 180 nM.
Turning to `COc1cccc(CN(C)C)c1OCC(=O)Nc1cc(-n2nc(C)cc2C)nc(-c2ccc(C)o2)n1`, the inhibition constant Ki in series [1] was 5.7 nM; in [2] it was 1400 nM.
The corresponding values for `Cc1cc(C)n(-c2cc(NC(=O)COc3cc(F)cc(CN4CCCC4)c3)nc(-c3ccc(C)o3)n2)n1` are 0.5 nM and 120 nM.
With `Cc1cc(C)n(-c2cc(NC(=O)COc3cccc(CCN(C)C)c3)nc(-c3ccc(C)o3)n2)n1`, the values for the inhibition constant (Ki) in series [1] and in [2] were 0.5 nM and 78 nM, respectively.
For `Cc1ccc(-c2nc(NC(=O)COc3ccc(F)cc3)cc(-c3nccs3)n2)o1`, the Ki in [1] was greater than 10000 nM; in series [2], 1300 nM.
`CCN(C)Cc1cccc(OCC(=O)Nc2cc(-n3nc(C)cc3C)nc(-c3ccc(C)o3)n2)c1`: the Ki was 0.3 nM in series [1], 68 nM in series [2] and 0.3 nM in [6]. For the same molecule, the Ratio Ki in series [5] is 100.
In the case of `Cc1cc(C)n(-c2cc(NC(=O)COc3cccc(C#N)c3)nc(-c3ccc(C)o3)n2)n1`, the Ki was greater than 10000 nM in series [1] and 25000 nM in [2].
On the same counts, the results for `Cc1ccc(-c2nc(NC(=O)COc3ccccc3)cc(-c3nccs3)n2)o1` are 7.4 nM and 1100 nM.
Take `CC(=O)Nc1cc(-n2cccn2)nc(-c2ccco2)n1`: in series [5], the Ratio Ki is 17. The molecule further gave a Ki in [6] of 0.6 nM.
In the case of `COc1cc(CN(C)C)ccc1OCC(=O)Nc1cc(-n2nc(C)cc2C)nc(-c2ccc(C)o2)n1`, the inhibitory constant (Ki) in series [1] is 0.2 nM; in [2] it was 100 nM.
Regarding `Cc1cc(C)n(-c2cc(NC(=O)COc3cc(F)cc(CN(C)C)c3)nc(-c3ccc(C)o3)n2)n1`, the Ki amounted to 0.5 nM in [1] and 140 nM in series [2].
As for `Cc1ccc(-c2nc(NC(=O)CCc3ccccc3F)cc(-c3nccs3)n2)o1`, the Ratio Ki in series [5] worked out at 26. The Ki came to 16 nM in series [6] and 410 nM in series [16].
`Cc1ccc(-c2nc(NC(=O)COc3cccc(Cl)c3)cc(-c3nccs3)n2)o1`: the inhibitory constant (Ki) was determined as 14 nM in series [1] and 1500 nM in [2].
As for `Cc1ccc(OCC(=O)Nc2cc(-c3nccs3)nc(-c3ccc(C)o3)n2)cc1`, the values for the Ki in [1] and in series [2] were 36 nM and 2100 nM, respectively.
On the same counts, the results for `Cc1cc(C)n(-c2cc(NC(=O)COc3ccccc3CN(C)C)nc(-c3ccc(C)o3)n2)n1` are 1 nM and 270 nM.
In the case of `Cc1cc(C)n(-c2cc(NC(=O)COc3cccc(CN4CCOCC4)c3)nc(-c3ccc(C)o3)n2)n1`, the Ki was found to be 1.2 nM in series [1] and 600 nM in series [2]. Moreover, in [5], the Ratio Ki amounted to 500.
With `Cc1cc(C)n(-c2cc(NC(=O)COc3cc(F)cc(CN4CCOCC4)c3)nc(-c3ccc(C)o3)n2)n1`, the Ki turned out to be 1.4 nM in [1] and 480 nM in [2].
With `Cc1cc(C)n(-c2cc(NC(=O)COc3cccc(F)c3)nc(-c3ccc(C)o3)n2)n1`, the inhibitory constant (Ki) was found to be 3.7 nM in [1] and 9700 nM in series [2]. Also, the Ratio Ki in series [5] is 2600. Further, in series [7], the solubility turned out to be 80 µg/mL (≈ 190 µM).
`Cc1ccc(OCC(=O)Nc2cc(-n3nc(C)cc3C)nc(-c3ccc(C)o3)n2)c(CN(C)C)c1`: the Ki in series [1] is 1 nM; in series [2], 270 nM.
As for `Cc1ccc(-c2nc(NC(=O)COc3ccccc3F)cc(-c3nccs3)n2)o1`, the Ki in [1] is 7.5 nM; in [2], 650 nM. In addition, the Ratio Ki in [5] was 87.
As for `COc1cc(OCC(=O)Nc2cc(-n3nc(C)cc3C)nc(-c3ccc(C)o3)n2)ccc1CN(C)C`, the inhibition constant Ki in series [1] came out at 0.3 nM; in series [2], 150 nM.
